Source: ChEMBL document CHEMBL5150000, “Insights on Dengue and Zika NS5 RNA-dependent RNA polymerase (RdRp) inhibitors” (Eur J Med Chem, 2021)
Blank lines part the entries; values can stand above or below the compound they belong to.

Legend:
dengue virus type 2 [1] = experiment: Antiviral activity against DENV-2 RNA-dependent RNA polymerase; type: functional, organism-based
dengue virus type 2 [2] = experiment: Antiviral activity against DENV-2 infected hamster BHK-21 cells assessed as reduction in viral replication incubated for 4 hrs; type: functional, organism-based
dengue virus type 1 [3] = experiment: Antiviral activity against DENV-1 infected hamster BHK-21 cells assessed as reduction in viral replication incubated for 4 hrs; type: functional, organism-based
dengue virus type 3 [4] = experiment: Antiviral activity against DENV-3 infected hamster BHK-21 cells assessed as reduction in viral replication incubated for 4 hrs; type: functional, organism-based
dengue virus type 4 [5] = experiment: Antiviral activity against DENV-4 infected hamster BHK-21 cells assessed as reduction in viral replication incubated for 4 hrs; type: functional, organism-based
dengue virus type 2 [6] = experiment: Antiviral activity against DENV-2; type: functional, organism-based
[7] = Binding affinity to DENV-2 RNA-dependent RNA polymerase assessed as dissociation constant using GTP as substrate; set-up: species or system dengue virus type 2
dengue virus type 2 [8] = experiment: Antiviral activity against DENV-2 incubated for 72 hrs by MTT assay; type: functional, organism-based
dengue virus type 1 [9] = experiment: Antiviral activity against DENV-1 RNA-dependent RNA polymerase infected in African green monkey Vero cells assessed as reduction in viral replication incubated for 2 days by qRT-PCR analysis; type: functional, organism-based; settings: 48 h
[10] = Toxicity in rat assessed as animal survival at 15 to 30 mg/kg, iv measured for 7 days; type: organism-based; settings: in vivo, dose 15-30 mg/kg, time 7 day, read-out: Activity
dengue virus type 4 [11] = experiment: Antiviral activity against DENV-4 RNA-dependent RNA polymerase infected in African green monkey Vero cells assessed as reduction in viral replication incubated for 2 days by qRT-PCR analysis; type: functional, organism-based; settings: 48 h
[12] = Inhibition of DENV RNA-dependent RNA polymerase activity; set-up: species or system Dengue virus
dengue virus type 3 [13] = experiment: Antiviral activity against DENV-3 RNA-dependent RNA polymerase infected in African green monkey Vero cells assessed as reduction in viral replication incubated for 2 days by qRT-PCR analysis; type: functional, organism-based; settings: 48 h
[14] = Inhibition of DENV RNA polymerase; set-up: species or system Dengue virus
dengue virus type 2 [15] = experiment: Antiviral activity against DENV-2 RNA-dependent RNA polymerase infected in African green monkey Vero cells assessed as reduction in viral replication incubated for 2 days by qRT-PCR analysis; type: functional, organism-based; settings: 48 h
dengue virus type 3 [16] = experiment: Antiviral activity against DENV-3 NS5 infected in African green monkey Vero cells; type: functional, organism-based
dengue virus type 1 [17] = experiment: Antiviral activity against DENV-1 NS5 infected in African green monkey Vero cells; type: functional, organism-based
dengue virus type 2 [18] = experiment: Antiviral activity against DENV-2 NS5 infected in African green monkey Vero cells; type: functional, organism-based
[19] = Inhibition of DENV-3 full length NS5/RNA-dependent RNA polymerase; set-up: species or system dengue virus type 3
Dengue virus [20] = experiment: Antiviral activity against DENV; type: functional, organism-based
Zika virus = experiment: Antiviral activity against Zika virus; type: functional, organism-based
NS5 = NS5 (Zika virus, UniProt A0A143MHK7); experiment: Inhibition of Zika virus RNA-dependent RNA polymerase
THP-1 = experiment: Cytotoxicity against human THP-1 cells
HepG2 = experiment: Cytotoxicity against human HepG2 cells
Dengue virus [21] = experiment: Antiviral activity DENV infected in African green monkey Vero 76 cells assessed as virus-induced cytopathic effect; type: functional, organism-based
[22] = Inhibition of Zika virus RNA N7 methyltransferase
[23] = Inhibition of Dengue virus RNA N7 methyltransferase

NS5, sequence (A0A143MHK7 whole entry): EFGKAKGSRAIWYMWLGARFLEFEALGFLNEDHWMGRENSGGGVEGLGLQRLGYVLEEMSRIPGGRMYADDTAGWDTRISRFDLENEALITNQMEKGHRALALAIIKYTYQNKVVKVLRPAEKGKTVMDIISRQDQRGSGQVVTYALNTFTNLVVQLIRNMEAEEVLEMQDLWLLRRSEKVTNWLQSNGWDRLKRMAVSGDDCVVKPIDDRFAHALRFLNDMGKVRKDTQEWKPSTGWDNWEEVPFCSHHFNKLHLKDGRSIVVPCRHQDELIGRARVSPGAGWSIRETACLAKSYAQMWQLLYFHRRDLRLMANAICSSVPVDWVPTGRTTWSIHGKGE

Compound: CN1CCN(c2ccc(C(=O)Nc3n[nH]c4ccc(Cc5cc(F)cc(F)c5)cc34)c(NC3CCOCC3)c2)CC1 [ENTRECTINIB]
- EC50 (dengue virus type 2 [6]): 2430 nM
- Kd [7]: 166000 nM

Compound: CN[C@@H]1CC[C@@H]2CN(c3c(F)c(N)c4c(=O)c(C(=O)O)cn(C5CC5)c4c3F)C[C@@H]21
- EC50 (dengue virus type 2 [8]): 9200 nM

Compound: C[C@@]1(O)[C@H](O)[C@@H](CO)O[C@H]1n1ccc(N)nc1=O
- EC50 (dengue virus type 1 [9]): 2900 nM
- survival at 168 h [10]: 60%
- EC50 (dengue virus type 4 [11]): 2600 nM
- IC50 [12]: 19300 nM
- EC50 (dengue virus type 3 [13]): 2400 nM
- IC50 [14]: 11200 nM
- EC50 (dengue virus type 2 [15]): 2800 nM

Compound: CC(=O)Oc1ccc2oc(=O)sc2c1
- EC50 (dengue virus type 3 [16]): 29400 nM
- EC50 (dengue virus type 1 [17]): 29500 nM
- EC50 (dengue virus type 2 [18]): 6000 nM
- IC50 [19]: 287000 nM

Compound: OC[C@H]1O[C@@H](n2c3ccc(Cl)cc3c3c(-c4ccco4)ncnc32)[C@H](O)[C@@H]1O
- CC50 (THP-1): 1560 nM
- CC50 (HepG2): 170 nM

Now from value to compound:

- EC50 (dengue virus type 2 [1]): 3900 nM
Compound: CNC1CN(c2c(F)c(N)c3c(=O)c(C(=O)O)cn(C4CC4)c3c2Cl)CC1OC (configuration not stated)

- IC50 (dengue virus type 2 [2]): 2080 nM
- IC50 (dengue virus type 1 [3]): 2320 nM
- IC50 (dengue virus type 3 [4]): 1660 nM
- IC50 (dengue virus type 4 [5]): 1900 nM
Compound: IVERMECTIN

- EC50 (Dengue virus [20]): 13000 nM
- EC50 (Zika virus): 2200 nM
- IC50 (NS5): 500 nM
Compound: Nc1ncnc2c1c(-c1cc3ccccc3o1)cn2[C@@H]1O[C@H](CO)[C@@H](O)[C@H]1O

- EC50 (Dengue virus [21]): 57 nM
- IC50 [22]: 1700 nM
- IC50 [23]: 8400 nM
Compound: COc1nc(N)ncc1-c1cn(COCCO)cn1
